Measured values taken from patent publication US5645072A, “Real time chemical exposure and risk monitor” (priority 1995, dated 1997).

Tests used:
[1] = Paustenbach et al., 1988, cited from earlier work
[2] = cited from earlier work
[3] = Real-time measurement of CCl4 in combined exhaled breath of rats after a single intravenous injection (TAGA tandem mass spectrometer); assay type: in vivo, male Fischer 344 rat
Excerpt: Male, Fischer 344 rats, weighing 225-275 g, were purchased either with, or without, indwelling jugular vein cannulas from Charles River, Inc., Raleigh, N.C. Animals were housed singularly in solid-bottom cages with hardwood chips, and were acclimated on a 12-hr light/dark cycle prior to use. Rodent chow (NIH-07) and water were provided ad libitum throughout the acclimation period. Cannulas were maintained by periodic flushing with heparinized saline.
In three different experiments, either two or four animals were placed in nose-only restraint tubes (C. H. Technologies, Westwood, N.J.) with access slots that allow the cannulas to be exteriorized from the animal. Each animal restrainer was connected via a nose port to the rat manifold. The exhaled breath from the rat exited the nose port and was driven into a common mixing chamber by a continuous flow of supplied breathing air. Samples for analysis by the mass spectrometer were continually drawn from the contents of the mixing chamber. Rats placed in restraint tubes are connected to the manifold. The exhaled breath from each animal is passed into a common heated mixing chamber, where the mass spectrometer draws a sample via a drying tube.
Each animal received a single intravenous injection of CCl4 in isotonic saline, either through the Jugular vein cannula, or via the tail vein. In the first experiment, two animals were utilized, each receiving a dose of 0.6 mg/kg body weight (BW) (250 μl volume) through the jugular vein cannula. Cannulas were flushed with saline immediately following injection. The second and third experiments utilized 4 animals each, with each animal receiving a dose of 1.5 mg/kg BW (1 ml volume) through the tail vein. In all cases, the length of time of injection was approximately 1 minute. The combined exhaled breath from the exposed animals was measured continuously to determine the concentration of CCl4 exhaled. The resulting concentration data were adjusted to account for dilution by the flow of supplied breathing air and divided by the number of rats to allow expression as ng CCl4 /l air per rat.
The expired breath from the rats was monitored by interfacing the rats to a tandem mass spectrometer. The manifold was a modification of a human breath interface patented by Kenny and Kelly (1991) U.S. Pat. No. 5,042,501 herein incorporated by reference. This device can accommodate up to six rats connected by the nose-only restraint tubes mentioned above. Breathing air (1000 ml/min) is constantly supplied to the rats through the center tube (175 ml volume) of the manifold at a rate greater than the combined ventilation rate of the animals on the system, and can be adjusted for the number of rats being monitored. Re-breathing of the exhaled air was considered to be negligible. The exhaled breath from each rat flows into a common heated mixing chamber (300 ml volume) from which the mass spectrometer continuously draws its sample. The excess exhaled air is vented from the mixing chamber with negligible flow restriction via a large bore hole exit tube. Intensity data from the mass spectrometer was converted to concentration (ppb) through the use of external standards and a calibration curve for carbon tetrachloride. A new calibration curve was generated each day of experimentation.
During these experiments, the expired breath of the rats was monitored in real-time using a Sciex Trace Atmospheric Gas Analyzer (TAGA) 6000E tandem mass spectrometer (Sciex, Thornhill, Ontario, Canada) equipped with a low-pressure chemical ionization source (LPCI). The TAGA combines sampling and analysis into one rapid operation, while maintaining a very high level of sensitivity and selectivity (Dawson et al. 1982a; 1982b). The TAGA consists of a LPCI source and two mass filters in series, separated by a gas-collision region. Organic molecules in the sampled air stream are ionized directly at approximately 1 torr by the chemical reactions generated about a Townsend discharge electrode. […]

[4] = 0.6 mg/kg BW, jugular vein cannula, two rats, FIG. 3a

For `ClC(Cl)(Cl)Cl` [CCl4, carbon tetrachloride], the “Vmaxc (Metabolism)” value ([1]; body weight 250 g) is given as 13.8 μg CCl4 /min per kg, the “Km (Metabolism)” value [1] is given as 0.25 µg/mL and the “Partition coefficient Blood: Air” value ([2]; Gargas et al., 1986b) is given as 4.52. The “Partition coefficient Liver: Blood” value ([2]; Gargas et al., 1986b) was 3.14, the “Partition coefficient Slowly perfused: Blood” value ([2]; Gargas et al., 1986b) was 2.0 and the “Partition coefficient Richly perfused: Blood” value ([2]; Set equivalent to partition coefficient for liver: blood) was 3.14. For the same molecule, the “first pass elimination through the lung” value [3, 4] was “extremely rapid”, the “levels available for subsequent distribution into the entire blood volume” value [3, 4] was “very low levels” and the “fraction of CCl4 held up in the circulating blood supply” value ([3]; 1.5 mg/kg BW, tail vein, four rats, FIG. 3b, compared with jugular vein) was “larger fraction”. For the same molecule, the “elimination through the lung (exhalation profile)” value ([3]; 1.5 mg/kg BW, tail vein, four rats, FIG. 3b, repeat gave same pattern) was “initial sharp peak”, the “time for which the decay of the CCl4 can be followed after the injection before returning to baseline” value ([3]; FIGS. 3a and 3b, single i.v. injection) was 30 to 35 min and the Tmax ([3]; rat, exhaled breath, iv, single i.v. injection, 0.6 mg/kg jugular vein or 1.5 mg/kg tail vein, consistent with calculated sample-introduction delay (28.5 seconds), read-out: peak concentration of CCl4 in exhaled breath occurred in (time from the end of the injection) (converted)) was about 30 s. For the same molecule, the “acetone in exhaled breath (biomarker of CCl4-induced lipid peroxidation)” value ([3]; single i.v. injection of CCl4) was “not detectable”.
